From patent US20240082409A1, “Modified peptide ligands for stable delivery of highly potent payloads to tumors: Method of making and using same” (priority 2020, published 2024) come the findings set out here.

Values joined by “and” are separate entries in the source; they are usually repeats but may differ in a detail not shown here. Equal entries are not always repeated. “Also recorded” adds a separate entry of the source. Numbered stars: 1 amine (or outer) side, 2 acyl side, 3 side chain; on linkers, the order of the positions; unused ones are H or OH. Bridge positions count the residues as written; N and C are the ends. Square brackets hold non-standard residues; d marks the D form. Peptide text beside a SMILES is read from it. I, II: the chains in the order shown. * marks the point of attachment. X1 = O=C([C@@H](CCCCn1nnc2c1-c1ccccc1N([*:3])Cc1ccccc1-2)N[*:1])[*:2]; Dolaproine = CO[C@@H]([C@@H]1CCCN1)[C@@H](C)C(=O)O; X3 = O=C(CCC(=O)[*:1])NCCOCCOCCOCCC(=O)[*:2]; Dil = CC[C@H](C)[C@H](NC)[C@@H](CC(=O)O)OC; PABC = O=C(OCc1ccc(N[*:1])cc1)[*:2]; X2 = C[C@@H](N*)[C@@H](O)c1ccccc1; d3Pal = N[C@H](Cc1cccnc1)C(=O)O; Cit = NC(=O)NCCC[C@H](N)C(=O)O; pGlu = O=C1CC[C@@H](C(=O)O)N1; NMeV = CN[C@H](C(=O)O)C(C)C

One data set has as its system HCC1806 TNBC CDX. Nature of the data set: Tumor growth of HCC1806 xenografts in female SCID mice. It counts as in vivo. The method, then:
FIG. 4A depicts tumor volume in female SCID mice bearing HCC1806 TNBC CDX during treatment with saline; OTS-P22 or MMAE at a single i.v. injection of 0.5 μmol/kg on day 0 (arrow). Tumor volume values in mm^3 are presented as mean±standard error of 10 mice per group. Statistical analysis was performed using ANOVA followed by Tukey's multiple comparison test. ***<0.001, **<0.01, *<0.05 were significant.

Data set [1] can be described thus: Animal weight, hematology and normal organ histology in treated SCID mice. In kind it is in vivo. The note with it: for effect on animal weight: single i.v. injection 0.5 μmol/kg, SCID mice bearing HCC1806. From the text:
FIG. 4B depicts animal weight in female SCID mice bearing HCC1806 TNBC CDX during treatment with saline; OTS-P22 or MMAE at a single i.v. injection of 0.5 μmol/kg on day 0 (arrow). […] are presented as mean±standard error of 10 mice per group.
FIG. 5A depict hematology parameters of saline- and OTS-P22 treated SCID mice bearing HCC1806 TNBC xenografts (n=10) as described in FIG. 4A and into in accordance with the preferred embodiment of the present invention;
FIG. 5B depict representative hematoxylin-eosin staining slides of normal organs from saline- and OTS-P22 treated SCID mice bearing HCC1806 TNBC xenografts as described in FIG. 4A and into in accordance with the preferred embodiment of the present invention;

A short description of data set [2]: In-vitro potency of LHRH-based drug conjugates (summary statement). The note with it: cell line not stated.
For a further data set, the system named is HCC1806 TNBC cell line. Kind of data set: MTS proliferation (viability) assay, HCC1806. It counts as cell-based, human. The method, then:
(§1) FIG. 2A depicts the viability of HCC1806 and BT-549 TNBC cell lines as well as normal 3T3 mouse fibroblasts in presence of peptide drug conjugate OTS-P22 at increasing concentrations (Log 0.165-100 nM). Cells were plated at 10,000 cells/well on 96-well plates in RPMI or DMEM medium (pH 7.4) with 10% FBS or 10% BCS and after attachment they were washed and incubated with OTS-P22 in complete medium without antibiotics for 3 hours. After 3 hours, cells were washed and then incubated in complete medium without antibiotics for an additional 93 hours. At the end of the incubation period cells were washed and cell viability was measured using MTS assay according to the manufacturer's instructions (Promega, Madison, WI). Data shown are percentage mean value and standard error of triplicate measurements. Differences between mean values were evaluated by one-way ANOVA followed by Tukey's honestly significant difference procedure. **<0.01 were highly significant.

For data set [3], the system named is normal 3T3 mouse fibroblasts. The note with it: 0.165-100 nM, 3 hours exposure, then 93 hours, MTS. Here is the method:
as §1

Data set [4] can be described thus: In-vitro stability in human plasma (RP-HPLC/mass spectrometry). It counts as in vitro ADME. Here is the method: FIGS. 7A, 7B, 7C and 7D depicts the in-vitro stability of OTS-P23 in human plasma at 0, 2, 8 and 24 hours incubation times respectively in accordance with a preferred embodiment of the present invention. OTS-P23 is incubated at 100 μg/100 μl in 80% plasma from human or for 0, 2, 8 or 24 hours. Solutions are then centrifuged using Amicon centrifugal devices (cut-off 10 KDa) and 20 μl of the lower molecular weight fractions are analyzed by RP-HPLC/mass spectrometry. […] A minor peak (2.26%) was detected with a molecular weight of 2240.3 Dalton (metabolite).
FIGS. 13A, 13B, 13C and 13D depicts the in-vitro stability of OTS-P28 in human plasma at 0, 2, 8 and 24 hours incubation times respectively in accordance with a preferred embodiment of the present invention. OTS-P23 is incubated at 100 μg/100 μl in 80% plasma from human or for 0, 2, 8 or 24 hours. Solutions are then centrifuged using Amicon centrifugal devices (cut-off 10 KDa) and 20 μl of the lower molecular weight fractions are analyzed by RP-HPLC/mass spectrometry. […] A minor peak (2.26%) was detected with a molecular weight of 2240.3 Dalton (metabolite).

For data set [5], the system named is caspase activity in HCC1806 cells. The note with it: 100 nM, 48 hours.
Protocol: At the end of the incubation, cells were washed three times, lyzed and proteins quantified using Bradford reagents. Apoptosis assay was performed using 100 μg proteins according to ApoTarget Caspase Colorimetric Protease Assay Sampler Kit instructions (Invitrogen, Carlsbad, CA).

Take `CC[C@H](C)[C@@H]([C@@H](CC(=O)N1CCC[C@H]1[C@H](OC)[C@@H](C)C(=O)N[C@H](C)[C@@H](O)c1ccccc1)OC)N(C)C(=O)[C@@H](NC(=O)[C@@H](NC)C(C)C)C(C)C` [MMAE, monomethyl auristatin E, reference compound] (H-[NMeV]V[Dil][Dolaproine]-X2): the “effect on tumor growth (in words)” value with HCC1806 TNBC CDX (single i.v. injection 0.5 μmol/kg, end of 21 days study) is “did not show any significant tumor growth inhibition; also recorded: no significant effect”. Also, the “effect on animal weight” value in data set [1] is “Neither treatment with OTS-P22 or MMAE affected animal weight”.
In the case of “Glp-His-DPal-Ser-Tyr-DCys[Val-Cit-PABC-MMAE]-Leu-Arg-Pro-DAla-NH2 [OTS-P26]”, in data set [2], the “in-vitro potency (in words)” value is on record as “higher potency at low nanomolar concentrations”. Besides, the “effect on viability of HCC1806 TNBC cells (in words)” value with HCC1806 TNBC cell line (MTS proliferation assay) was “dose-dependent manner”.
“Glp-His-DPal-Ser-Tyr-DLys[dPEG8-Val-Cit-PABC-MMAE]-Leu-Arg-Pro-DAla-NH2 [OTS-P23]”: the “in-vitro potency (in words)” value in data set [2] is on record as “higher potency at low nanomolar concentrations”.
For “Glp-His-Trp-DSer-Tyr-DLys[-dPEG5-Val-Cit-PABC-MMAE]-Leu-Arg-Pro-NHEt [OTS-P23b]”, the “in-vitro potency (in words)” value in data set [2] is given as “higher potency at low nanomolar concentrations”.
For the compound `CC[C@H](C)[C@@H]([C@@H](CC(=O)N1CCC[C@H]1[C@H](OC)[C@@H](C)C(=O)N[C@H](C)[C@@H](O)c1ccccc1)OC)N(C)C(=O)[C@@H](NC(=O)[C@H](C(C)C)N(C)C(=O)OCc1ccc(NC(=O)[C@H](CCCNC(N)=O)NC(=O)[C@@H](NC(=O)CCOCCOCCOCCNC(=O)CCC(=O)N2Cc3ccccc3-c3nnn(CCCC[C@@H](NC(=O)[C@H](Cc4ccc(O)cc4)NC(=O)[C@H](CO)NC(=O)[C@@H](Cc4cccnc4)NC(=O)[C@H](Cc4c[nH]cn4)NC(=O)[C@@H]4CCC(=O)N4)C(=O)N[C@@H](CC(C)C)C(=O)N[C@@H](CCCNC(=N)N)C(=O)N4CCC[C@H]4C(=O)N[C@H](C)C(N)=O)c3-c3ccccc32)C(C)C)cc1)C(C)C` [OTS-P22, Glp-His-DPal-Ser-Tyr-DLys[dPEG3-Val-Cit-PABC-MMAE]-Leu-Arg-Pro-DAla-NH2] (I: [pGlu]H[d3Pal]SY[X1]LRP[dA]-NH2 / II: V[Cit][PABC][NMeV]V[Dil][Dolaproine]-X2; linker I:6-II:N via X3), the “in-vitro potency (in words)” value in data set [2] is “higher potency at low nanomolar concentrations”. The “effect on viability of 3T3 normal fibroblasts” value in data set [3] was “no effect”. Besides, the “minor peak (metabolite, 2240.3 Dalton)” value in data set [4] (80% human plasma, 8 hours incubation) came to 2.26%. The conjugate still intact in data set [4] (80% human plasma, 8 hours incubation, 100 μg/100 μl) was 97.74%. Also, in data set [4] (80% human plasma, 8 hours incubation, 100 μg/100 μl, read-out: conjugate still intact), the remaining at 8 h, 100 μg/100 μl came out at 97.7%. Further, in the data set on HCC1806 TNBC CDX (compared with first generation conjugate AEZS-108), the “potency relative to AEZS-108 in term of in-vivo tumor growth inhibition of HCC1806 xenografts” value was “at least 16 times”. Also, in the data set on HCC1806 TNBC CDX (single i.v. 0.5 μmol/kg, 21 days, 80.5% in 2/10 mice, 88.5% in 1/10 mice), the partial response is 80.5% and 88.5%. The compound also registered a tumor growth inhibition in the data set with HCC1806 TNBC CDX (single i.v. injection 0.5 μmol/kg (1.435 mg/kg), 21 days post-treatment, SCID mice) of 100%. Moreover, the “mice showing complete response” value with HCC1806 TNBC CDX (single i.v. injection 0.5 μmol/kg, 21 days post-treatment, 10 mice per group) is listed as 7/10. Also, the “increase of caspase activity as compared to saline-treated cells” value in data set [5] came out at 1.5 fold. Also, the effect on hematology entry in data set [1] (SCID mice bearing HCC1806 xenografts) is given as “No signifcant effect”. In addition, in data set [1] (SCID mice bearing HCC1806 xenografts, hematoxylin-eosin), the “effect on normal tissue histology” value is “No signifcant effect”. In addition, the “effect on animal weight” value in data set [1] is “No signifcant effect; also recorded: Neither treatment with OTS-P22 or MMAE affected animal weight”.
Take “Glp-His-DPal-Ser-Tyr-DCys[dPEG8-Val-Cit-PABC-MMAE]-Leu-Arg-Pro-DAla-NH2 [OTS-P28]”: in data set [2], the “in-vitro potency (in words)” value is given as “higher potency at low nanomolar concentrations”. In data set [4] (human plasma), the “stability in human plasma (in words)” value is given as “highly stable”. In addition, the “anti-proliferative activity in-vitro on HCC1806 TNBC cell line (in words)” value with HCC1806 TNBC cell line is “low nanomolar concentrations”.
On to “Glp-DHis-Trp-DSer-Tyr-DLys[Glut-Val-Cit-PABC-MMAE]-Leu-Arg-Pro-DAla-NH2 [OTS-P31]”, for which the “in-vitro potency (in words)” value in data set [2] is on record as “higher potency at low nanomolar concentrations”.
